Results reported in paper PMC3714356 (The Journal of investigative dermatology, 2013).
Read-outs that look alike come from different tables or passages of the source.

Experiments:
Cyp1a1 [1] = assay: HaCaT cells, CYP1A1 mRNA by Reverse Transcriptase Real-Time PCR; conditions: for induction of CYP1A1 mRNA: 100 nM; for Cyp1a1 induction, time dependence: 24h compared to 3 and 6h
Cyp1b1 = assay: HaCaT cells, CYP1B1 mRNA by Reverse Transcriptase Real-Time PCR; type: cell-based, human; conditions: 1 μM, 24h
AhR [2] = target: T1, AhR (Homo sapiens, UniProt P35869); assay: cell-based
T1 sequence (P35869 11-848): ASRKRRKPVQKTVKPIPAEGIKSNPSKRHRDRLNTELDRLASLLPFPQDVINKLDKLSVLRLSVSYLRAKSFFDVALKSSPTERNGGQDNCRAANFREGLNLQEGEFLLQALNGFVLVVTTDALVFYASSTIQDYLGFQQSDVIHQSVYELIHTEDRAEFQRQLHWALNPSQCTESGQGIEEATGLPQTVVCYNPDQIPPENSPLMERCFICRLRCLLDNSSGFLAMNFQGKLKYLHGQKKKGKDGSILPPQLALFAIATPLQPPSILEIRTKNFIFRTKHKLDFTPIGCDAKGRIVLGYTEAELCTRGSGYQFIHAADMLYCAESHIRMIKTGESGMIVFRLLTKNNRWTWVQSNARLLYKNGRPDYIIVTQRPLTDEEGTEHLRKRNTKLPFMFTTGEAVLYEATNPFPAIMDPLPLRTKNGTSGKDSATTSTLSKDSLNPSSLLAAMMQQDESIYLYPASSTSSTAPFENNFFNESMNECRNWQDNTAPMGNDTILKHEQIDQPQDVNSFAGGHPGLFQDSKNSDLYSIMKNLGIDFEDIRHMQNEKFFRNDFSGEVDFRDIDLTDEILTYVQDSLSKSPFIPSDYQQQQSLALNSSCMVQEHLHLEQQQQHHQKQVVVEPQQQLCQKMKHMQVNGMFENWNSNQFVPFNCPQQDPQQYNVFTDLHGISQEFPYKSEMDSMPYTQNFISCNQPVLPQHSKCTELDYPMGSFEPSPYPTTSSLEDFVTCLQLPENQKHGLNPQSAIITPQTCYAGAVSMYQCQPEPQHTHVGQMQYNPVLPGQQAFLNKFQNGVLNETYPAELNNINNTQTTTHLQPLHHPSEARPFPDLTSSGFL

Cyp1a1 [3] = conditions: human
AhR [4] = target: T1, AhR
[5] = 6 hours of incubation, HG2L7.5c1 cells

Compound	induction of CYP1A1 mRNA (Cyp1a1 [1]; 24h)	Cyp1a1 induction, time dependence (Cyp1a1 [1])	EC50 (AhR [2])	also measured
O=Cc1c2[nH]c3ccccc3c2cc2[nH]c3ccccc3c12 [FICZ, 6-formylindolo[3,2-b]carbazole]	Statistically significant induction	higher at 24h	–	Cyp1a1 induction compared with ICZ or indirubin (Cyp1a1 [1]; 1 μM, 24h): significantly more potent; Cyp1b1 induction compared with ICZ or indirubin (Cyp1b1): significantly more potent
Clc1cc2c(cc1Cl)Oc1cc(Cl)c(Cl)cc1O2 [TCDD, 2,3,7,8-tetrachlorodibenzo-p-dioxin, reference compound]	–	–	0.000523 µM	–
O=C1Nc2ccccc2/C1=C1/Nc2ccccc2C1=O [indirubin]	–	–	–	Cyp1a1 induction, time dependence (Cyp1a1 [3]): higher at 24h
O=Cc1c(Cc2c[nH]c3ccccc23)[nH]c2ccccc12 [malassezin]	–	–	–	fold less potent than TCDD (AhR [4]; [5]): 20 fold
O=C1c2ccccc2-n2c1nc1ccccc1c2=O [tryptanthrin]	–	–	0.107 µM	fold less potent than TCDD (AhR [4]): 200 fold
indolo[3,2-b]carbazole [ICZ]	Statistically significant induction	higher at 24h	–	potency relative to the prototypical AhR agonist TCDD (AhR [4]; [5]): equipotent
